In ChEMBL document CHEMBL1201862, “PubChem BioAssay data set” (2004):
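Each compound was tested at five concentrations against cells in 96-well plates for 48 hours. GI50 = concentration required for 50% inhibition of growth.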 The source made the active and inactive calls. Cut-off read from the data, not from the text of the source: active = GI50 up to about 1.1 µM and inactive = higher.

Key:
Experiment in all cases: inhibition of tumour cell growth, NCI panel, 48 h
T47D = test system: T47D
UACC-62 = test system: UACC-62
KM12 = test system: KM12
SK-OV-3 = test system: SK-OV-3
SF-268 = test system: SF-268
EKVX = test system: EKVX
A549 = test system: A549
SNB-19 = test system: SNB-19
HL-60 = test system: HL-60
M14 = test system: M14
MDA-MB-435 = test system: MDA-MB-435
BT-549 = test system: BT-549
OVCAR-4 = test system: OVCAR-4
A498 = test system: A498
MOLT-4 = test system: MOLT-4
NCI-H23 = test system: NCI-H23
UO-31 = test system: UO-31
SNB-75 = test system: SNB-75
MCF7 = test system: MCF7
OVCAR-8 = test system: OVCAR-8

Compound	GI50 (T47D)	GI50 (UACC-62)	GI50 (KM12)	GI50 (SK-OV-3)	GI50 (SF-268)	GI50 (EKVX)	GI50 (A549)	GI50 (SNB-19)	GI50 (HL-60)	GI50 (M14)	GI50 (MDA-MB-435)	GI50 (BT-549)	GI50 (OVCAR-4)	GI50 (A498)	GI50 (MOLT-4)	GI50 (NCI-H23)	GI50 (UO-31)	GI50 (SNB-75)	GI50 (MCF7)	GI50 (OVCAR-8)
Nc1nc(-c2ccccc2)c(-c2ccccc2)c(-c2nc(N)nc(-c3ccccc3)c2-c2ccccc2)n1	49.7 µM (inactive)	85.3 µM (inactive)	> 100 µM (inactive)	> 100 µM (inactive)	> 100 µM (inactive)	63.7 µM (inactive)	> 100 µM (inactive)	> 100 µM (inactive)	> 100 µM (inactive)	> 100 µM (inactive)	> 100 µM (inactive)	> 100 µM (inactive)	91 µM (inactive)	75.5 µM (inactive)	> 100 µM (inactive)	> 100 µM (inactive)	> 100 µM (inactive)	88.7 µM (inactive)	49.4 µM (inactive)	> 100 µM (inactive)
O=P1(c2ccccc2)C(c2ccccc2)=CC=C1c1ccccc1	8.95 µM (inactive)	18.8 µM (inactive)	16.7 µM (inactive)	59.4 µM (inactive)	24.5 µM (inactive)	24.2 µM (inactive)	22.6 µM (inactive)	> 100 µM (inactive)	2.28 µM (inactive)	18.4 µM (inactive)	12.4 µM (inactive)	18.8 µM (inactive)	10.6 µM (inactive)	16.8 µM (inactive)	6.65 µM (inactive)	21.5 µM (inactive)	13.7 µM (inactive)	20.7 µM (inactive)	10.4 µM (inactive)	14.6 µM (inactive)
Cc1cccc(-c2cc(O)c3c(C)cc(C)nc3n2)c1	3.96 µM (inactive)	4.14 µM (inactive)	0.745 µM (active)	2.24 µM (inactive)	6.21 µM (inactive)	22 µM (inactive)	3.66 µM (inactive)	4.38 µM (inactive)	0.838 µM (active)	2.29 µM (inactive)	0.321 µM (active)	3.73 µM (inactive)	4.38 µM (inactive)	5.71 µM (inactive)	5.06 µM (inactive)	3.65 µM (inactive)	9.91 µM (inactive)	1.99 µM (inactive)	0.962 µM (active)	5.58 µM (inactive)
CC1=CC(=O)CC(C)(C)C1(O)/C=C/C(C)=C/C(=O)O (centres undefined)	> 100 µM (inactive)	> 100 µM (inactive)	> 100 µM (inactive)	> 100 µM (inactive)	> 100 µM (inactive)	> 100 µM (inactive)	> 100 µM (inactive)	> 100 µM (inactive)	> 100 µM (inactive)	> 100 µM (inactive)	> 100 µM (inactive)	> 100 µM (inactive)	> 100 µM (inactive)	> 100 µM (inactive)	> 100 µM (inactive)	> 100 µM (inactive)	> 100 µM (inactive)	> 100 µM (inactive)	> 100 µM (inactive)	> 100 µM (inactive)
NC(=S)NN=Cc1ccccc1OCc1cccc(COc2ccccc2C=NNC(N)=S)n1	> 38.2 µM (inactive)	19.3 µM (inactive)	> 100 µM (inactive)	9.89 µM (inactive)	5.46 µM (inactive)	10 µM (inactive)	> 100 µM (inactive)	9.89 µM (inactive)	> 100 µM (inactive)	> 100 µM (inactive)	> 100 µM (inactive)	13.6 µM (inactive)	> 100 µM (inactive)	17.5 µM (inactive)	> 100 µM (inactive)	29.8 µM (inactive)	28.2 µM (inactive)	1.78 µM (inactive)	> 100 µM (inactive)	6.01 µM (inactive)
CC(C)NC(=O)OCc1c(COC(=O)NC(C)C)c(-c2cc[n+](COC(=O)C(C)C)cc2)n2c1CCC2	> 94.8 µM (inactive)	48.9 µM (inactive)	> 100 µM (inactive)	98.4 µM (inactive)	> 74.8 µM (inactive)	> 100 µM (inactive)	> 100 µM (inactive)	> 100 µM (inactive)	27.8 µM (inactive)	99.5 µM (inactive)	> 100 µM (inactive)	> 100 µM (inactive)	> 100 µM (inactive)	13.9 µM (inactive)	> 46.9 µM (inactive)	> 90.4 µM (inactive)	> 100 µM (inactive)	> 53.5 µM (inactive)	64.4 µM (inactive)	> 100 µM (inactive)
O=C(c1cc2ccccc2[nH]1)N1C2CCC1CN(CCOC(c1ccc(F)cc1)c1ccc(F)cc1)CC2 (centres undefined)	5.28 µM (inactive)	52 µM (inactive)	60.3 µM (inactive)	> 100 µM (inactive)	8.28 µM (inactive)	8.55 µM (inactive)	34.9 µM (inactive)	> 100 µM (inactive)	6.85 µM (inactive)	> 100 µM (inactive)	> 100 µM (inactive)	> 100 µM (inactive)	> 100 µM (inactive)	> 100 µM (inactive)	4.91 µM (inactive)	40.1 µM (inactive)	3.22 µM (inactive)	> 100 µM (inactive)	7.06 µM (inactive)	> 100 µM (inactive)
O=C1Nc2ccccc2S/C1=C\c1ccccc1C(F)(F)F	> 100 µM (inactive)	> 100 µM (inactive)	> 100 µM (inactive)	89.5 µM (inactive)	> 100 µM (inactive)	> 100 µM (inactive)	> 100 µM (inactive)	> 100 µM (inactive)	4.2 µM (inactive)	> 100 µM (inactive)	> 100 µM (inactive)	59.7 µM (inactive)	18.8 µM (inactive)	> 10 µM (inactive)	> 100 µM (inactive)		> 100 µM (inactive)	34.4 µM (inactive)	98.6 µM (inactive)	72.6 µM (inactive)
CC(=O)O[C@H]1CC[C@@]2(C)C(=CC[C@@H]3[C@@H]2CC[C@]2(C)C(=N/O)/C(=C\c4ccccc4)C[C@@H]32)C1	7.53 µM (inactive)	5.94 µM (inactive)	3.2 µM (inactive)	28.9 µM (inactive)	24.2 µM (inactive)	4.86 µM (inactive)	14.4 µM (inactive)	> 55 µM (inactive)	14.5 µM (inactive)	4.9 µM (inactive)	3.89 µM (inactive)	16.5 µM (inactive)	30.1 µM (inactive)	13.4 µM (inactive)	3.08 µM (inactive)	16.3 µM (inactive)	9.06 µM (inactive)	33.6 µM (inactive)	13 µM (inactive)	9.71 µM (inactive)
Cn1c2ccccc2c2[nH]c3ccccc3c(=O)c21	43 µM (inactive)	> 100 µM (inactive)	> 100 µM (inactive)	> 100 µM (inactive)	> 100 µM (inactive)	> 100 µM (inactive)	> 100 µM (inactive)	93.3 µM (inactive)	> 100 µM (inactive)	> 100 µM (inactive)	> 100 µM (inactive)	> 100 µM (inactive)	> 10 µM (inactive)	> 100 µM (inactive)	50.6 µM (inactive)	> 100 µM (inactive)	> 100 µM (inactive)	69.2 µM (inactive)	> 100 µM (inactive)	> 100 µM (inactive)
CC(=O)CC1(O)C(=O)c2c(Br)sc(Br)c2C1=O	30.9 µM (inactive)	21 µM (inactive)	34.3 µM (inactive)	36.8 µM (inactive)	30.2 µM (inactive)	20 µM (inactive)	58.1 µM (inactive)	55.5 µM (inactive)	20.6 µM (inactive)	17.8 µM (inactive)	20 µM (inactive)	19 µM (inactive)	18.6 µM (inactive)	> 100 µM (inactive)	32.4 µM (inactive)	19.5 µM (inactive)	32.2 µM (inactive)	59.7 µM (inactive)	30.1 µM (inactive)	23 µM (inactive)
O=c1[nH]nc(-c2ccccc2)n1/N=C/c1ccc([N+](=O)[O-])cc1	13.8 µM (inactive)	> 53.8 µM (inactive)	> 100 µM (inactive)	2.94 µM (inactive)	13 µM (inactive)	> 80.4 µM (inactive)	23.9 µM (inactive)	7.78 µM (inactive)	> 100 µM (inactive)	96.2 µM (inactive)	> 100 µM (inactive)	> 100 µM (inactive)	3.85 µM (inactive)	14.6 µM (inactive)	> 100 µM (inactive)	> 53.2 µM (inactive)	11.2 µM (inactive)	10.4 µM (inactive)	> 60.1 µM (inactive)	10.2 µM (inactive)
COC(=O)c1cc(C)ccc1CC(Cc1ccccc1C)C(=O)OC (centres undefined)	26 µM (inactive)	27.5 µM (inactive)	23.8 µM (inactive)	> 100 µM (inactive)	61.2 µM (inactive)	18.7 µM (inactive)	51.6 µM (inactive)	> 100 µM (inactive)	13.2 µM (inactive)	29.6 µM (inactive)	18.1 µM (inactive)	61.7 µM (inactive)	29.7 µM (inactive)	60.4 µM (inactive)	2.56 µM (inactive)	40.1 µM (inactive)	31 µM (inactive)	> 100 µM (inactive)	23.3 µM (inactive)	45.5 µM (inactive)
C/C(=C\[C@H]1C[C@@H]([C@@H]2CC[C@]34C[C@]23C=C[C@@H]2[C@@]3(C)CC=C5C[C@@H](c6ccccc6)OC[C@]5(C)[C@@H]3C[C@@H](O)[C@]24C)C(=O)O1)CO [DICHAPETALIN A]	2.84 µM (inactive)	9.02 µM (inactive)	2.45 µM (inactive)	> 36.8 µM (inactive)	6.75 µM (inactive)	1.51 µM (inactive)	2.79 µM (inactive)	11.8 µM (inactive)	1.2 µM (inactive)	2.77 µM (inactive)	2.48 µM (inactive)	3.78 µM (inactive)	3.03 µM (inactive)	0.437 µM (active)	1.59 µM (inactive)	1.19 µM (inactive)	2.48 µM (inactive)	3.55 µM (inactive)	1.78 µM (inactive)	4.91 µM (inactive)
